Data reported in patent publication US8450317B2, “CXCR3 receptor antagonists” (Boehringer Ingelheim International GmbH, priority 2009, dated 2013).

Each compound was assayed against CXCR3 (Macaca fascicularis, UniProt A0A2K5UV19) (assay: functional cellular assay measuring calcium flux in CXCR3 transfected cells (block of CXCR3/IP-10 interaction)). Details: IP-10 induced intracellular calcium flux; Cyno-CHO cells stably expressing recombinant CXCR3 and G-alpha-16; IP-10 at EC80; read-out: IC50.
Sequence of CXCR3 (A0A2K5UV19 entry or part of it): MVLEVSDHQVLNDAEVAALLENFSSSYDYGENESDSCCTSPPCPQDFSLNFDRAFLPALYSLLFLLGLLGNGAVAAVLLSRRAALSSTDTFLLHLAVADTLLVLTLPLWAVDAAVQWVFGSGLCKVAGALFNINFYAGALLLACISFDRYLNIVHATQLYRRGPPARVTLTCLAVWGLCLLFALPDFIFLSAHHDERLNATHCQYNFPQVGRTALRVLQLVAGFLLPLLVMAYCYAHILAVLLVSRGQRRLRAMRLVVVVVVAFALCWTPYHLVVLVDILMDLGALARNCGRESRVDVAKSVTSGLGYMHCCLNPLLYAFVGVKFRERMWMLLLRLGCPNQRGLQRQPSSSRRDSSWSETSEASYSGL
Assay type: cell-based, Cyno
Summary of the method: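 Cyno-CHO cells stably expressing CXCR3 and G-alpha-16, loaded with Ca-4 dye in HBSS/10 mM HEPES pH 7.4 with 2 mM probenecid for 1 h at 37° C. Compound (final 10 microM) preincubated 15 min at room temperature, then IP-10 at EC80 added; calcium flux read at 480/540 nm.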
Compound `CC1CN(c2ccc(F)cc2-c2cnc(S(C)(=O)=O)nc2)CCN1C(=O)CN1Cc2ccccc2C1=O` (stereo not drawn) [2-[2-(4-{4-fluoro-2-[2-(methylsulfonyl)pyrimidin-5-yl]phenyl}-2-methylpiperazin-1-yl)-2-oxoethyl]-2,3-dihydro-1H-isoindol-1-one] has an IC50 of 0.245 µM.
With `Cc1cc(C)n(CC(=O)N2CCN(c3ccccc3-c3cnc(N(C)C)nc3)CC2)n1` [1-{4-[2-(2-Dimethylamino-pyrimidin-5-yl)-phenyl]-piperazin-1-yl}-2-(3,5-dimethyl-pyrazol-1-yl)-ethanone] the IC50 was 0.007 µM.
Work on `C[C@@H]1CN(c2ccc(F)cc2C(=O)Nc2nc3c(s2)CN(C)CC3)CCN1C(=O)Cn1cnc2cccnc21` [5-fluoro-2-[(3R)-4-(3H-imidazo[4,5-b]pyridin-3-ylacetyl)-3-methylpiperazin-1-yl]-N-(5-methyl-4,5,6,7-tetrahydro[1,3]thiazolo[5,4-c]pyridin-2-yl)benzamide] yielded an IC50 of 0.015 µM.
In the case of `CC1CN(c2ccc(C(F)(F)F)cc2-c2cnc(N3CCC(S(C)(=O)=O)CC3)nc2)CCN1C(=O)Cn1c(=O)[nH]c2ccccc21` (stereo not drawn) [1-(2-{2-methyl-4-[2-{2-[4-(methylsulfonyl)piperidin-1-yl]pyrimidin-5-yl}-4-(trifluoromethyl)phenyl]piperazin-1-yl}-2-oxoethyl)-1,3-dihydro-2H-benzimidazol-2-one], the IC50 is reported as 0.008 µM.
Compound `COc1cccc(-c2ccccc2N2CCN(C(=O)Cn3nc(C)cc3C)CC2)c1` [2-(3,5-Dimethyl-pyrazol-1-yl)-1-[4-(3′-methoxy-biphenyl-2-yl)-piperazin-1-yl]-ethanone] has an IC50 of 0.056 µM.
`CS(=O)(=O)C1CCN(c2ncc(-c3cc(F)ccc3N3CCN(C(=O)Cn4ccc5ccncc54)CC3)cn2)CC1` [1-[4-(4-fluoro-2-{2-[4-(methylsulfonyl)piperidin-1-yl]pyrimidin-5-yl}phenyl)piperazin-1-yl]-2-(1H-pyrrolo[2,3-c]pyridin-1-yl)ethanone] showed an IC50 of 0.008 µM.
`CS(=O)(=O)C1CCN(c2ncc(-c3cc(F)ccc3N3CCN(C(=O)Cn4cnc5cccnc54)CC3)cn2)CC1` [1-[4-(4-fluoro-2-{2-[4-(methylsulfonyl)piperidin-1-yl]pyrimidin-5-yl}phenyl)piperazin-1-yl]-2-(3H-imidazo[4,5-b]pyridin-3-yl)ethanone] showed an IC50 of 0.01 µM.
With `N#Cc1ccc(N2CCN(C(=O)Cn3ccc4cccnc43)CC2)c(-c2cnc(N3CCOCC3)nc2)c1` [3-(2-Morpholin-4-yl-pyrimidin-5-yl)-4-[4-(2-pyrrolo[2,3-b]pyridin-1-yl-acetyl)-piperazin-1-yl]-benzonitrile] the IC50 was 0.008 µM.
With `O=C(CN1CCCCC1=O)N1CCN(c2ccc(F)cc2-c2cnc(N3CCOCC3)nc2)CC1` [1-[2-(4-{4-fluoro-2-[2-(morpholin-4-yl)pyrimidin-5-yl]phenyl}piperazin-1-yl)-2-oxoethyl]piperidin-2-one] the IC50 was 0.03 µM.
For `COc1cc(NC(=O)c2cc(F)ccc2N2CCN(C(=O)Cn3c(=O)[nH]c4ccccc43)[C@H](C)C2)ccn1` [5-fluoro-N-(2-methoxypyridin-4-yl)-2-{(3R)-3-methyl-4-[(2-oxo-2,3-dihydro-1H-benzimidazol-1-yl)acetyl]piperazin-1-yl}benzamide], the IC50 was 0.008 µM.
`COc1cc(NC(=O)c2cc(F)ccc2N2CCN(C(=O)CN3Cc4ccccc4C3=O)[C@@H](C)C2)ccn1` [5-fluoro-N-(2-methoxypyridin-4-yl)-2-{(3S)-3-methyl-4-[(1-oxo-1,3-dihydro-2H-isoindol-2-yl)acetyl]piperazin-1-yl}benzamide] showed an IC50 of 0.013 µM.
`COc1ncc(-c2ccccc2N2CCN(C(=O)Cn3ncc4ccccc43)CC2)cn1` [2-Indazol-1-yl-1-{4-[2-(2-methoxy-pyrimidin-5-yl)-phenyl]-piperazin-1-yl}-ethanone] was tested, and the IC50 was 0.035 µM.
For `COc1ncc(-c2cc(C#N)ccc2N2CCN(C(=O)Cn3ccc4cccnc43)CC2)cn1` [3-(2-Methoxy-pyrimidin-5-yl)-4-[4-(2-pyrrolo[2,3-b]pyridin-1-yl-acetyl)-piperazin-1-yl]-benzonitrile], the IC50 was 0.007 µM.
For `Cc1cc(C)n(CC(=O)N2CCN(c3ccccc3-c3cnc(N4CCC(O)C4)nc3)CC2)n1` (stereo not drawn) [2-(3,5-Dimethyl-pyrazol-1-yl)-1-(4-{2-[2-(3-hydroxy-pyrrolidin-1-yl)-pyrimidin-5-yl]-phenyl}-piperazin-1-yl)-ethanone], the IC50 was 0.009 µM.
Compound `COc1ccc(N2CCN(C(=O)Cn3ccc4cccnc43)CC2)c(-c2cnc(N3CCOCC3)nc2)c1` [1-{4-[4-Methoxy-2-(2-morpholin-4-yl-pyrimidin-5-yl)-phenyl]-piperazin-1-yl}-2-pyrrolo[2,3-b]pyridin-1-yl-ethanone] has an IC50 of 0.009 µM.
In the case of `Cc1cc(C)n(CC(=O)N2CCN(c3ccccc3-c3cnc(C#N)nc3)CC2)n1` [5-(2-{4-[2-(3,5-Dimethyl-pyrazol-1-yl)-acetyl]-piperazin-1-yl}-phenyl)-pyrimidine-2-carbonitrile], the IC50 is reported as 0.043 µM.
`COc1cc(NC(=O)c2cc(F)ccc2N2CCN(C(=O)CN3CCCCC3=O)[C@@H](C)C2)ccn1` [5-fluoro-N-(2-methoxypyridin-4-yl)-2-{(3S)-3-methyl-4-[(2-oxopiperidin-1-yl)acetyl]piperazin-1-yl}benzamide] was tested, and the IC50 was 0.008 µM.
`CC1CN(c2ccc(F)cc2-c2cnc(N3CCC(S(C)(=O)=O)CC3)nc2)CCN1C(=O)CN1CCCCC1=O` (stereo not drawn) [1-{2-[4-(4-fluoro-2-{2-[4-(methylsulfonyl)piperidin-1-yl]pyrimidin-5-yl}phenyl)-2-methylpiperazin-1-yl]-2-oxoethyl}piperidin-2-one] was tested, and the IC50 was 0.014 µM.
With `CC(C)C(=O)N(C)CC(=O)N1CCN(c2ccc(F)cc2C(=O)Nc2nc3c(s2)CN(C)CC3)C[C@@H]1C` [5-fluoro-2-{(3S)-3-methyl-4-[N-methyl-N-(2-methylpropanoyl)glycyl]piperazin-1-yl}-N-(5-methyl-4,5,6,7-tetrahydro[1,3]thiazolo[5,4-c]pyridin-2-yl)benzamide] the IC50 was 0.014 µM.
`CNc1ncc(-c2cc(Cl)ccc2N2CCN(C(=O)Cn3nc(C)cc3C)CC2)cn1` [1-{4-[4-Chloro-2-(2-methylamino-pyrimidin-5-yl)-phenyl]-piperazin-1-yl}-2-(3,5-dimethyl-pyrazol-1-yl)-ethanone] gave an IC50 of 0.013 µM.
For `CCNc1ncc(-c2ccccc2N2CCN(C(=O)Cn3nc(C)cc3C)CC2)cn1` [2-(3,5-Dimethyl-pyrazol-1-yl)-1-{4-[2-(2-ethylamino-pyrimidin-5-yl)-phenyl]-piperazin-1-yl}-ethanone], the IC50 was 0.01 µM.
`Cc1cc(C)n(CC(=O)N2CCN(c3ccc(F)cc3-c3cnc(N4CCC(S(C)(=O)=O)CC4)nc3)CC2C)n1` (stereo not drawn) [2-(3,5-dimethyl-1H-pyrazol-1-yl)-1-[4-(4-fluoro-2-{2-[4-(methylsulfonyl)piperidin-1-yl]pyrimidin-5-yl}phenyl)-2-methylpiperazin-1-yl]ethanone] showed an IC50 of 0.01 µM.
`Cc1cc(C)n(CC(=O)N2CCN(c3ccc(F)cc3-c3cnc(N4CCN(C)CC4)nc3)CC2)n1` [2-(3,5-dimethyl-1H-pyrazol-1-yl)-1-(4-{4-fluoro-2-[2-(4-methylpiperazin-1-yl)pyrimidin-5-yl]phenyl}piperazin-1-yl)ethanone] was tested, and the IC50 was 0.04 µM.
Work on `COc1ncc(-c2cc(F)ccc2N2CCN(C(=O)Cn3ccc4cccnc43)CC2)cn1` [1-{4-[4-fluoro-2-(2-methoxypyrimidin-5-yl)phenyl]piperazin-1-yl}-2-(1H-pyrrolo[2,3-b]pyridin-1-yl)ethanone] yielded an IC50 of 0.011 µM.
`CNc1ncc(-c2ccccc2N2CCN(C(=O)Cn3nc(C)cc3C)CC2)cn1` [2-(3,5-Dimethyl-pyrazol-1-yl)-1-{4-[2-(2-methylamino-pyrimidin-5-yl)-phenyl]-piperazin-1-yl}-ethanone] showed an IC50 of 0.034 µM.
Work on `CC1CN(c2ccccc2-c2cnc(N3CCC(O)CC3)nc2)CCN1C(=O)Cn1cnc2cccnc21` (stereo not drawn) [1-(4-{2-[2-(4-hydroxypiperidin-1-yl)pyrimidin-5-yl]phenyl}-2-methylpiperazin-1-yl)-2-(3H-imidazo[4,5-b]pyridin-3-yl)ethanone] yielded an IC50 of 0.011 µM.
`O=C(Cn1c(=O)[nH]c2ccccc21)N1CCN(c2ccccc2-c2cnc(N3CCOCC3)nc2)CC1` [1-(2-{4-[2-(2-Morpholin-4-yl-pyrimidin-5-yl)-phenyl]-piperazin-1-yl}-2-oxo-ethyl)-1,3-dihydro-benzoimidazol-2-one] showed an IC50 of 0.01 µM.
For `Cc1cc(C)n(CC(=O)N2CCN(c3ccccc3-c3cnc(N4CCCC(C(F)(F)F)C4)nc3)CC2)n1` (stereo not drawn) [2-(3,5-Dimethyl-pyrazol-1-yl)-1-(4-{2-[2-(3-trifluoromethyl-piperidin-1-yl)-pyrimidin-5-yl]-phenyl}-piperazin-1-yl)-ethanone], the IC50 was 0.012 µM.
Compound `CCOc1ncc(-c2ccccc2N2CCN(C(=O)Cn3nc(C)cc3C)CC2)cn1` [2-(3,5-Dimethyl-pyrazol-1-yl)-1-{4-[2-(2-ethoxy-pyrimidin-5-yl)-phenyl]-piperazin-1-yl}-ethanone] has an IC50 of 0.018 µM.
Work on `CC1CN(c2ccc(C(F)(F)F)cc2-c2cnc(N3CCC(O)CC3)nc2)CCN1C(=O)CN1Cc2ccccc2C1=O` (stereo not drawn) [2-[2-(4-{2-[2-(4-hydroxypiperidin-1-yl)pyrimidin-5-yl]-4-(trifluoromethyl)phenyl}-2-methylpiperazin-1-yl)-2-oxoethyl]-2,3-dihydro-1H-isoindol-1-one] yielded an IC50 of 0.009 µM.
In the case of `C[C@H]1CN(c2ccc(F)cc2C(=O)Nc2nc3c(s2)CN(C)CC3)CCN1C(=O)CN1CCCCC1=O` [5-fluoro-2-{(3S)-3-methyl-4-[(2-oxopiperidin-1-yl)acetyl]piperazin-1-yl}-N-(5-methyl-4,5,6,7-tetrahydro[1,3]thiazolo[5,4-c]pyridin-2-yl)benzamide], the IC50 is reported as 0.017 µM.
`COc1ncc(-c2ccccc2N2CCN(C(=O)Cn3nc(C)cc3C)CC2)cn1` [2-(3,5-Dimethyl-pyrazol-1-yl)-1-{4-[2-(2-methoxy-pyrimidin-5-yl)-phenyl]-piperazin-1-yl}-ethanone] showed an IC50 of 0.046 µM.
In the case of `O=C(Cn1ccc2cccnc21)N1CCN(c2ccc(Cl)cc2-c2cnc(N3CCOCC3)nc2)CC1` [1-{4-[4-Chloro-2-(2-morpholin-4-yl-pyrimidin-5-yl)-phenyl]-piperazin-1-yl}-2-pyrrolo[2,3-b]pyridin-1-yl-ethanone], the IC50 is reported as 0.013 µM.
